According to US9580426B2, “Compounds that expand hematopoietic stem cells” (Novartis AG, priority 2008, dated 2017):

Experiments:
[1] = system: Primary adult CD34+ human hematopoietic stem cells (HSCs); assay: % CD34+ assay: HSC expansion screen, dose response; format: cell-based; details: Homo sapiens, Hematopoietic stem cell; dose response 1 nM to 10 μM; total number and/or percent of CD34+ cells
How it was run: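 Human CD34+ cells, chiefly MACS-enriched from G-CSF-mobilized peripheral blood, were grown at 37° C., 5% CO2 in serum-free StemSpan with TPO, IL-6, Flt-3 ligand and SCF (50 ng/mL each), plus compound or DMSO. Cultures were kept at 10^4–5×10^5 cells/mL and assessed by flow cytometry for CD34 expression. EC50 came from a 1 nM–10 μM dose response.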

mPB-derived CD34+ cells = assay: Genome-wide transcriptional profiling; format: cell-based, human; details: 24 hours
Text: The two genes that were the most highly repressed by treatment with Example 1 (cytochrome P450 1B1 [CYP1B1] and the aryl hydrocarbon receptor repressor [AHRR]) are transcriptionally regulated by the aryl hydrocarbon receptor (AHR). Therefore, compounds of the invention could be acting as an antagonist of AHR signaling.

AHR = target: T1, AHR (Rattus norvegicus, UniProt P41738); assay: Dioxin induced AHR dependent transcription, rat cells; format: cell-based
T1 construct: had no activity on rat cells; endogenous in cells; host or cells: unnamed rat cells
T1 sequence (P41738 10-853): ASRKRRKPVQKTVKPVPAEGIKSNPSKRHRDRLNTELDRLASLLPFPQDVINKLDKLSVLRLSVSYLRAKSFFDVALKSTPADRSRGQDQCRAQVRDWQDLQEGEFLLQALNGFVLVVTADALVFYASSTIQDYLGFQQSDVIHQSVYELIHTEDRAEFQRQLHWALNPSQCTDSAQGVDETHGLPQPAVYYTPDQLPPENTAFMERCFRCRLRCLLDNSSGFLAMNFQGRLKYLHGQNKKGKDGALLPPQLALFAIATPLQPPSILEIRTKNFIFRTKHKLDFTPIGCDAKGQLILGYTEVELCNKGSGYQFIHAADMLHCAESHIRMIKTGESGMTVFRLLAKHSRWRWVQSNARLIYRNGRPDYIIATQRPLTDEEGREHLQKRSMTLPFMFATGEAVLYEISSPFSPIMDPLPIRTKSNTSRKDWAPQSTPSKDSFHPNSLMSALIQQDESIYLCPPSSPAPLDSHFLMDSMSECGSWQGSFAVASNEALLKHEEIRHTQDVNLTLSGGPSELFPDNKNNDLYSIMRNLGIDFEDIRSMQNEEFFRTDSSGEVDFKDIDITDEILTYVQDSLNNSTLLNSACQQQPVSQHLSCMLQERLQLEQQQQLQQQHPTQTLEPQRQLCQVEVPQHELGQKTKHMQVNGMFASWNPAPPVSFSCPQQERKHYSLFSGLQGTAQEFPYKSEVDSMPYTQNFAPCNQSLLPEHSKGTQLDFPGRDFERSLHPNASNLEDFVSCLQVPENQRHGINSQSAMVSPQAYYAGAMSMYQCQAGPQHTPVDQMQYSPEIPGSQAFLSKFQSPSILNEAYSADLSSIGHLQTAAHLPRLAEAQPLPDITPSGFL
Description: Further, the ability of Example 1 to block 2,3,7,8-tetrachlorodibenzo-p-dioxin (TCDD, dioxin)-mediated CYP1B1 mRNA expression by qPCR in mPB-derived CD34^+ cells was determined. Treatment with TCDD (3 nM) caused a 4.5-fold increase in the level of CYP1B1 mRNA compared with the vehicle control (0.01% toluene). […] To determine the effects of Example 1 in AHR transcription the ability of Example 1 to inhibit a dioxin-induced AHR dependent luciferase reporter gene assay was tested.

mPB CD34+ HSCs = assay: Cobblestone area-forming cell (CAFC) assay; format: cell-based, human; details: 1 micromolar; mPB CD34+ HSCs after 5 days of culture
Description: Cobblestone area-forming cell (CAFC) assays: The FBMD-1 stromal cells are maintained in 25-cm^2 flasks and are trypsinized after ⅓ confluence. Since this non-transformed line ages, and therefore gradually loses its potential to support CAFC growth at late stages, all feeders are used below passage 20. For supporting CAFC growth in 96-well plates, 1×10^3 stromal cells are seeded per well. The cultures are maintained in Iscove's medium supplemented with 10% fetal calf serum (FCS), 2.5% horse serum (HS), 1% L-glutamine, 1% penicillin-streptomycin, and 1×10^−5 M hydrocortisone at 37° C. in a humidified atmosphere of 5% CO2 in air. After stromal layers reach confluency, they are inoculated with CD34^+ HSCs that have been cultured for 5 days with vehicle or a compound of the invention. MNCs are added at 8 serial 1:3 dilutions (starting at 25,000 cells/well), with 10 wells for each cell dose. The dilutions with wells with at least one phase-dark hematopoietic clone (cobblestone area) of at least five cells beneath the stromal layer are determined at week 4. […]

With `CC(C)n1cnc2c(NCCc3ccc(O)cc3)nc(-c3csc4ccccc34)nc21` [Example 1, 4-(2-(2-(benzo[b]thiophen-3-yl)-9-isopropyl-9H-purin-6-ylamino)ethyl)phenol] the EC50 [1] was 120 nM, the “down-regulation of 5 genes (most repressed: CYP1B1, AHRR)” value (mPB-derived CD34+ cells; 1 μM) was greater than 70% and the “up-regulation of 5 genes of >50,000 probe sets” value (mPB-derived CD34+ cells) was “greater than 3 fold”. For the same compound, the “agonist activity (AHR dependent transcription)” value (AHR) was “only weak agonist activity”, the “inhibition of dioxin induced transcription” value (AHR) was “no activity” and the “increase in the number of cobblestone area forming cells compared with DMSO control” value (mPB CD34+ HSCs) was “greater than 2 fold”.
